# Data as given in the supplement of paper PMC10307832.
# How the values were obtained:
# Experiment in all cases: relative viability (nuclei count vs DMSO), 5 days (fraction); higher = more cells survive
# H3255 = system: H3255
# In short: (§1)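 Cells from lung cancer lines were seeded into 1536-well plates and, one day later, dosed by pin tool. Treatments were either a single drug or a fixed dose of an anchor drug with five library-drug doses (not always all listed) in √10 steps. After 5 days, nuclei were stained in a one-step fixation (final 0.05% Triton X-100, 1% formaldehyde, 1 ug/ml Hoechst) and counted on 4× images, and relative viability is the treated-to-vehicle nuclei ratio, as the median of duplicate plates.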
# NCI-H1944 = system: NCI-H1944
# In short: as §1
# NCI-H1915 = system: NCI-H1915
# In short: as §1
# NCI-H661 = system: NCI-H661
# In short: as §1
# ABC-1 = system: ABC-1
# In short: as §1
# NCI-H441 = system: NCI-H441
# In short: as §1
# NCI-H1650 = system: NCI-H1650
# In short: as §1
# NCI-H2087 = system: NCI-H2087
# In short: as §1
# NCI-H2023 = system: NCI-H2023
# In short: as §1
# BEN = system: BEN
# In short: as §1
# CAL-12T = system: CAL-12T
# In short: as §1
# 201T = system: 201T
# In short: as §1
# NCI-H460 = system: NCI-H460
# In short: as §1
# NCI-H596 = system: NCI-H596
# In short: as §1
# NCI-H1651 = system: NCI-H1651
# In short: as §1
# NCI-H520 = system: NCI-H520
# In short: as §1
# LC-2-ad = system: LC-2-ad
# In short: as §1
# NCI-H650 = system: NCI-H650
# In short: as §1
# NCI-H727 = system: NCI-H727
# In short: as §1
# LCLC-97TM1 = system: LCLC-97TM1
# In short: as §1
# PC-3 [JPC-3] = system: PC-3 [JPC-3]
# In short: as §1
# A-427 = system: A-427
# In short: as §1
compound,measurement,setting,value
COc1nc(C)cnc1NS(=O)(=O)c1cccnc1-c1ccc(-c2nnco2)cc1 [Zibotentan] + CCNC(=O)c1noc(-c2cc(C(C)C)c(O)cc2O)c1-c1ccc(CN2CCOCC2)cc1 [Luminespib] (partner 0.01 µM),relative viability,H3255; first compound 0.08 µM,0.996
same,relative viability,H3255; first compound 0.253 µM,0.839
same,relative viability,H3255; first compound 0.8 µM,0.899
same,relative viability,H3255; first compound 2.53 µM,0.799
same,relative viability,NCI-H1944; first compound 0.08 µM,0.732
same,relative viability,NCI-H1944; first compound 0.253 µM,0.694
same,relative viability,NCI-H1944; first compound 0.8 µM,0.75
same,relative viability,NCI-H1944; first compound 2.53 µM,0.742
same,relative viability,NCI-H1915; first compound 0.08 µM,0.939
same,relative viability,NCI-H1915; first compound 0.253 µM,0.873
same,relative viability,NCI-H1915; first compound 0.8 µM,0.754
same,relative viability,NCI-H1915; first compound 2.53 µM,0.809
same,relative viability,NCI-H661; first compound 0.08 µM,0.953
same,relative viability,NCI-H661; first compound 0.253 µM,0.836
same,relative viability,NCI-H661; first compound 0.8 µM,0.922
same,relative viability,NCI-H661; first compound 2.53 µM,0.922
same,relative viability,ABC-1; first compound 0.08 µM,0.48
same,relative viability,ABC-1; first compound 0.8 µM,0.694
same,relative viability,ABC-1; first compound 2.53 µM,0.696
same,relative viability,NCI-H441; first compound 0.08 µM,0.41
same,relative viability,NCI-H441; first compound 0.253 µM,0.255
same,relative viability,NCI-H441; first compound 0.8 µM,0.345
same,relative viability,NCI-H441; first compound 2.53 µM,0.368
same,relative viability,NCI-H1650; first compound 0.08 µM,0.177
same,relative viability,NCI-H1650; first compound 0.8 µM,0.204
same,relative viability,NCI-H1650; first compound 2.53 µM,0.195
same,relative viability,NCI-H2087; first compound 0.08 µM,0.168
same,relative viability,NCI-H2087; first compound 0.253 µM,0.171
same,relative viability,NCI-H2087; first compound 0.8 µM,0.169
same,relative viability,NCI-H2087; first compound 2.53 µM,0.124
same,relative viability,NCI-H2023; first compound 0.08 µM,0.856
same,relative viability,NCI-H2023; first compound 0.253 µM,0.455
same,relative viability,NCI-H2023; first compound 0.8 µM,0.645
same,relative viability,NCI-H2023; first compound 2.53 µM,0.799
same,relative viability,BEN; first compound 0.08 µM,0.401
same,relative viability,BEN; first compound 0.253 µM,0.356
same,relative viability,BEN; first compound 0.8 µM,0.395
same,relative viability,BEN; first compound 2.53 µM,0.537
same,relative viability,CAL-12T; first compound 0.08 µM,0.598
same,relative viability,CAL-12T; first compound 0.253 µM,0.123
same,relative viability,CAL-12T; first compound 0.8 µM,0.415
same,relative viability,CAL-12T; first compound 2.53 µM,0.418
same,relative viability,201T; first compound 0.08 µM,1.11
same,relative viability,201T; first compound 0.253 µM,1.03
same,relative viability,201T; first compound 0.8 µM,1.14
same,relative viability,201T; first compound 2.53 µM,1.07
same,relative viability,NCI-H460; first compound 0.08 µM,0.036
same,relative viability,NCI-H460; first compound 0.253 µM,0.0258
same,relative viability,NCI-H460; first compound 0.8 µM,0.0276
same,relative viability,NCI-H460; first compound 2.53 µM,0.0332
same,relative viability,NCI-H596; first compound 0.08 µM,1.02
same,relative viability,NCI-H596; first compound 0.253 µM,0.939
same,relative viability,NCI-H596; first compound 0.8 µM,1.16
same,relative viability,NCI-H596; first compound 2.53 µM,1.03
same,relative viability,NCI-H1651; first compound 0.08 µM,0.802
same,relative viability,NCI-H1651; first compound 0.253 µM,0.484
same,relative viability,NCI-H1651; first compound 0.8 µM,0.958
same,relative viability,NCI-H1651; first compound 2.53 µM,0.796
same,relative viability,NCI-H520; first compound 0.08 µM,0.206
same,relative viability,NCI-H520; first compound 0.253 µM,0.213
same,relative viability,NCI-H520; first compound 0.8 µM,0.242
same,relative viability,NCI-H520; first compound 2.53 µM,0.164
same,relative viability,LC-2-ad; first compound 0.08 µM,1.25
same,relative viability,LC-2-ad; first compound 0.8 µM,1.32
same,relative viability,LC-2-ad; first compound 2.53 µM,1.06
same,relative viability,NCI-H650; first compound 0.08 µM,0.869
same,relative viability,NCI-H650; first compound 0.253 µM,0.667
same,relative viability,NCI-H650; first compound 0.8 µM,0.865
same,relative viability,NCI-H650; first compound 2.53 µM,0.856
same,relative viability,NCI-H727; first compound 0.08 µM,0.289
same,relative viability,NCI-H727; first compound 0.253 µM,0.316
same,relative viability,NCI-H727; first compound 0.8 µM,0.83
same,relative viability,NCI-H727; first compound 2.53 µM,0.325
same,relative viability,LCLC-97TM1; first compound 0.08 µM,0.948
same,relative viability,LCLC-97TM1; first compound 0.253 µM,0.759
same,relative viability,LCLC-97TM1; first compound 0.8 µM,0.927
same,relative viability,LCLC-97TM1; first compound 2.53 µM,0.692
same,relative viability,PC-3 [JPC-3]; first compound 0.08 µM,0.692
same,relative viability,PC-3 [JPC-3]; first compound 0.253 µM,0.738
same,relative viability,PC-3 [JPC-3]; first compound 0.8 µM,0.774
same,relative viability,PC-3 [JPC-3]; first compound 2.53 µM,0.718
same,relative viability,A-427; first compound 0.08 µM,1.16
same,relative viability,A-427; first compound 0.253 µM,0.857
same,relative viability,A-427; first compound 0.8 µM,0.998
same,relative viability,A-427; first compound 2.53 µM,0.911
COc1nc(C)cnc1NS(=O)(=O)c1cccnc1-c1ccc(-c2nnco2)cc1 [Zibotentan] + COc1cc2c(Oc3ccc(NC(=O)C4(C(=O)Nc5ccc(F)cc5)CC4)cc3F)ccnc2cc1OCCCN1CCOCC1 [Foretinib] (partner 0.25 µM),relative viability,H3255; first compound 0.08 µM,0.966
same,relative viability,H3255; first compound 0.253 µM,0.802
same,relative viability,H3255; first compound 0.8 µM,0.945
same,relative viability,H3255; first compound 2.53 µM,0.987
same,relative viability,NCI-H1944; first compound 0.08 µM,1.02
same,relative viability,NCI-H1944; first compound 0.253 µM,0.806
same,relative viability,NCI-H1944; first compound 0.8 µM,0.898
same,relative viability,NCI-H1944; first compound 2.53 µM,0.908
same,relative viability,NCI-H1915; first compound 0.08 µM,1.16
same,relative viability,NCI-H1915; first compound 0.253 µM,1.1
same,relative viability,NCI-H1915; first compound 0.8 µM,1.06
same,relative viability,NCI-H1915; first compound 2.53 µM,1.07
same,relative viability,NCI-H661; first compound 0.08 µM,1.01
same,relative viability,NCI-H661; first compound 0.253 µM,0.969
same,relative viability,NCI-H661; first compound 0.8 µM,0.995
same,relative viability,NCI-H661; first compound 2.53 µM,1.01
same,relative viability,ABC-1; first compound 0.08 µM,0.9
same,relative viability,ABC-1; first compound 0.253 µM,0.936
same,relative viability,ABC-1; first compound 0.8 µM,1.06
same,relative viability,ABC-1; first compound 2.53 µM,1.16
same,relative viability,NCI-H441; first compound 0.08 µM,1.11
same,relative viability,NCI-H441; first compound 0.253 µM,0.745
same,relative viability,NCI-H441; first compound 0.8 µM,1.03
same,relative viability,NCI-H441; first compound 2.53 µM,1.04
same,relative viability,NCI-H1650; first compound 0.08 µM,1.04
same,relative viability,NCI-H1650; first compound 0.8 µM,1.29
same,relative viability,NCI-H1650; first compound 2.53 µM,1.28
same,relative viability,NCI-H2087; first compound 0.08 µM,1.22
same,relative viability,NCI-H2087; first compound 0.253 µM,1.04
same,relative viability,NCI-H2087; first compound 0.8 µM,1.16
same,relative viability,NCI-H2087; first compound 2.53 µM,1.04
same,relative viability,NCI-H2023; first compound 0.08 µM,0.942
same,relative viability,NCI-H2023; first compound 0.253 µM,0.668
same,relative viability,NCI-H2023; first compound 0.8 µM,0.932
same,relative viability,NCI-H2023; first compound 2.53 µM,0.978
same,relative viability,BEN; first compound 0.08 µM,0.739
same,relative viability,BEN; first compound 0.253 µM,0.475
same,relative viability,BEN; first compound 0.8 µM,0.819
same,relative viability,BEN; first compound 2.53 µM,0.639
same,relative viability,CAL-12T; first compound 0.08 µM,1.21
same,relative viability,CAL-12T; first compound 0.253 µM,0.923
same,relative viability,CAL-12T; first compound 0.8 µM,1.13
same,relative viability,CAL-12T; first compound 2.53 µM,1.12
same,relative viability,201T; first compound 0.08 µM,1.16
same,relative viability,201T; first compound 0.253 µM,0.956
same,relative viability,201T; first compound 0.8 µM,1.04
same,relative viability,201T; first compound 2.53 µM,1.15
same,relative viability,NCI-H460; first compound 0.08 µM,1.09
same,relative viability,NCI-H460; first compound 0.253 µM,0.827
same,relative viability,NCI-H460; first compound 0.8 µM,0.986
same,relative viability,NCI-H460; first compound 2.53 µM,1.05
same,relative viability,NCI-H596; first compound 0.08 µM,0.899
same,relative viability,NCI-H596; first compound 0.253 µM,0.794
same,relative viability,NCI-H596; first compound 0.8 µM,0.768
same,relative viability,NCI-H596; first compound 2.53 µM,0.914
same,relative viability,NCI-H1651; first compound 0.08 µM,0.815
same,relative viability,NCI-H1651; first compound 0.253 µM,0.569
same,relative viability,NCI-H1651; first compound 0.8 µM,0.488
same,relative viability,NCI-H1651; first compound 2.53 µM,0.99
same,relative viability,NCI-H520; first compound 0.08 µM,0.811
same,relative viability,NCI-H520; first compound 0.253 µM,0.738
same,relative viability,NCI-H520; first compound 0.8 µM,0.586
same,relative viability,NCI-H520; first compound 2.53 µM,0.742
same,relative viability,LC-2-ad; first compound 0.08 µM,1.02
same,relative viability,LC-2-ad; first compound 0.8 µM,0.955
same,relative viability,LC-2-ad; first compound 2.53 µM,0.954
same,relative viability,NCI-H650; first compound 0.08 µM,1.1
same,relative viability,NCI-H650; first compound 0.253 µM,0.877
same,relative viability,NCI-H650; first compound 0.8 µM,1.07
same,relative viability,NCI-H650; first compound 2.53 µM,0.994
same,relative viability,NCI-H727; first compound 0.08 µM,1.07
same,relative viability,NCI-H727; first compound 0.253 µM,0.862
same,relative viability,NCI-H727; first compound 0.8 µM,0.893
same,relative viability,NCI-H727; first compound 2.53 µM,0.811
same,relative viability,LCLC-97TM1; first compound 0.08 µM,1.01
same,relative viability,LCLC-97TM1; first compound 0.253 µM,0.891
same,relative viability,LCLC-97TM1; first compound 0.8 µM,1
same,relative viability,LCLC-97TM1; first compound 2.53 µM,0.926
same,relative viability,PC-3 [JPC-3]; first compound 0.08 µM,1.05
same,relative viability,PC-3 [JPC-3]; first compound 0.253 µM,1.05
same,relative viability,PC-3 [JPC-3]; first compound 0.8 µM,1.03
same,relative viability,PC-3 [JPC-3]; first compound 2.53 µM,0.973
same,relative viability,A-427; first compound 0.08 µM,1.14
same,relative viability,A-427; first compound 0.253 µM,1.1
same,relative viability,A-427; first compound 0.8 µM,1.1
same,relative viability,A-427; first compound 2.53 µM,1.19
